Experiments:
[1] = system: Aβ production in Chinese hamster ovary cells that over-express human APP695 with the London and Swedish mutations; test: Cellular Aβ IC50 determination (Aβ40 sandwich ELISA); settings: Cricetulus griseus, CHO, 24 h, read-out: Cell, Aβ40, CHO cells over-expressing human APP695 (London and Swedish mutations), 24 h
memapsin 2 = memapsin 2 (Homo sapiens, UniProt P56817); test: Inhibition of memapsin 2 catalytic activity (Ki); type: biochemical; settings: memapsin 2, pH 4, 37° C.; read-out: M2K
Sequence of memapsin 2 (P56817 46-501): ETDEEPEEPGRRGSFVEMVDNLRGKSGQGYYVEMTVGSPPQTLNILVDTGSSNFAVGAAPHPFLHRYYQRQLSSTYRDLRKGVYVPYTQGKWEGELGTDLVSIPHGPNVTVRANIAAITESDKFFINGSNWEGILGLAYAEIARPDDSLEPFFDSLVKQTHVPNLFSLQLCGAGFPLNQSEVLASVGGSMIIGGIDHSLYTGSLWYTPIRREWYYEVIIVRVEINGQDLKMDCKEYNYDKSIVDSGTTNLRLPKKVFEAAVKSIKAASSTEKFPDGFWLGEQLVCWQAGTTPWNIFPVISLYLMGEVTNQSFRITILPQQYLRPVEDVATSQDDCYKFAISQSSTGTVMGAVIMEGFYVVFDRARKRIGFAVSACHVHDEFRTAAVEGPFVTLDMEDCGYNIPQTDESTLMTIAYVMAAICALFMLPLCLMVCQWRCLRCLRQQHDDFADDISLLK
Summary of the method: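 Run at 37 °C and pH 4: compound and enzyme pre-incubated 20 min before FS-2 fluorogenic substrate started hydrolysis,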

cathepsin D = cathepsin D (Homo sapiens, UniProt P07339); test: Inhibition of cathepsin D catalytic activity (Ki); type: biochemical; settings: pH 4.0, 37° C., read-out: CDK
Sequence of cathepsin D (P07339 65-412, species assumed): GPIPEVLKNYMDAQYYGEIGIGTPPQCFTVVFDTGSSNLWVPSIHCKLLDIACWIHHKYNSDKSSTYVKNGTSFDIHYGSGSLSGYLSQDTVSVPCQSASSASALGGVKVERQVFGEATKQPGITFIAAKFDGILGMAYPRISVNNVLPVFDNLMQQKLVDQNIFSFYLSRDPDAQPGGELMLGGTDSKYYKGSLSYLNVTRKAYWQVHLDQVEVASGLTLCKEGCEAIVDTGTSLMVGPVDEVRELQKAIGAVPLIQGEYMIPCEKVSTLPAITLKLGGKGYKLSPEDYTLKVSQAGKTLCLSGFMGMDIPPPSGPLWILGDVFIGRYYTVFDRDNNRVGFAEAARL

memapsin 1 = target: T1, memapsin 1 (Homo sapiens, UniProt Q9Y5Z0); test: Inhibition of memapsin 1 catalytic activity (Ki); type: biochemical; settings: memapsin 1, pH 4.0, 37° C.; read-out: M1K
T1 sequence (Q9Y5Z0 63-518): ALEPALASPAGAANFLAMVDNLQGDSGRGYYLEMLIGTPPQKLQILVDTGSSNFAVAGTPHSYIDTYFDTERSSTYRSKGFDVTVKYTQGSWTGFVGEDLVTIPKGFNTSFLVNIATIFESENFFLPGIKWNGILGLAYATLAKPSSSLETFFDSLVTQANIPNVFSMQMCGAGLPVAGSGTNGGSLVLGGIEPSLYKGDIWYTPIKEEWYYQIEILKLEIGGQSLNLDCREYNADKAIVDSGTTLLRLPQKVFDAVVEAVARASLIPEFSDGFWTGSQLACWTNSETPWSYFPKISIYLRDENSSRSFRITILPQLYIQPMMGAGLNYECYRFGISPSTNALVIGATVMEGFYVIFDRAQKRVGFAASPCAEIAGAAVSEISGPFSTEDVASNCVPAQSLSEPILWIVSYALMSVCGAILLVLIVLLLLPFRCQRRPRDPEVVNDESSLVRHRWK

Row | IC50 [1] [nM] | Ki (memapsin 2) [nM] | Ki (cathepsin D) [nM] | Ki (memapsin 1) [nM] | Structure (SMILES)
1 | < 1000 | < 300 | 301 to 500 | < 300 | CC(=O)Nc1cccc(CNCC(O)C(Cc2ccccc2)NC(=O)c2cc(C(=O)NC(C)c3ccccc3)cc(N(C)S(C)(=O)=O)c2)c1 (stereo not shown) [N1-(4-(3-acetamidobenzylamino)-3-hydroxy-1-phenylbutan-2-yl)-5-(N-methylmethylsulfonamido)-N3-(1-phenylethyl)isophthalamide]
2 | < 1000 | < 300 | 301 to 500 | > 501 | CC(NC(=O)c1cc(C(=O)NC(Cc2ccccc2)C(O)CNCc2cccc(F)c2)cc(N(C)S(C)(=O)=O)c1)c1ccccc1 (stereo not shown) [N1-(4-(3-fluorobenzylamino)-3-hydroxy-1-phenylbutan-2-yl)-5-(N-methylmethylsulfonamido)-N3-(1-phenylethyl)isophthalamide]
3 | < 1000 | > 501 | < 300 | > 501 | Cc1csc(CN(C)C(=O)c2cccc(C(=O)NC(Cc3ccccc3)C(O)CNCc3cccc(F)c3)c2)n1 (stereo not shown) [N1-(4-(3-fluorobenzylamino)-3-hydroxy-1-phenylbutan-2-yl)-N3-methyl-N3-((4-methylthiazol-2-yl)methyl)isophthalamide]
4 | < 1000 | < 300 | < 300 | < 300 | CC(NC(=O)c1cc(C(=O)NC(Cc2ccccc2)C(O)CNCc2ccccc2)cc(N(C)S(C)(=O)=O)c1)c1ccccc1 (stereo not shown) [N1-(4-(benzylamino)-3-hydroxy-1-phenylbutan-2-yl)-5-(N-methylmethylsulfonamido)-N3-(1-phenylethyl)isophthalamide]
5 | 1000 to 5000 | > 501 | > 501 | > 501 | COc1cccc(CNCC(O)C(Cc2ccccc2)NC(=O)c2cc(C(=O)NCc3nc(C)oc3C)cc(N(C)S(C)(=O)=O)c2)c1 (stereo not shown) [N1-((2,5-dimethyloxazol-4-yl)methyl)-N3-(3-hydroxy-4-(3-methoxybenzylamino)-1-phenylbutan-2-yl)-5-(N-methylmethylsulfonamido)isophthalamide]
6 | > 5000 | 301 to 500 | 301 to 500 | > 501 | COc1cccc(CNCC(O)C(Cc2ccccc2)NC(=O)c2cc(C(=O)NCC3COC4OCCC34)cc(N(C)S(C)(=O)=O)c2)c1 (stereo not shown) [N1-((hexahydrofuro[2,3-b]furan-3-yl)methyl)-N3-(3-hydroxy-4-(3-methoxybenzylamino)-1-phenylbutan-2-yl)-5-(N-methylmethylsulfonamido)isophthalamide]
7 | < 1000 | < 300 | < 300 | > 501 | COc1cccc(CNCC(O)C(Cc2ccccc2)NC(=O)c2cc(C(=O)NCc3ccccc3)cc(N(C)S(C)(=O)=O)c2)c1 (stereo not shown) [N1-benzyl-N3-(3-hydroxy-4-(3-methoxybenzylamino)-1-phenylbutan-2-yl)-5-(N-methylmethylsulfonamido)isophthalamide]
8 | < 1000 | < 300 | < 300 | < 300 | Cc1csc(CN(C(=O)c2cccc(C(=O)NC(Cc3ccccc3)C(O)CNCc3cncc(C(C)C)c3)c2)C2CC2)n1 (stereo not shown) [N1-cyclopropyl-N3-(3-hydroxy-4-((5-isopropylpyridin-3-yl)methylamino)-1-phenylbutan-2-yl)-N1-((4-methylthiazol-2-yl)methyl)isophthalamide]
9 | < 1000 | < 300 | < 300 | > 501 | COc1cccc(CNCC(O)C(Cc2ccccc2)NC(=O)c2cc(C(=O)NN(C)c3ccccc3)cc(N(C)S(C)(=O)=O)c2)c1 (stereo not shown) [N-(3-hydroxy-4-(3-methoxybenzylamino)-1-phenylbutan-2-yl)-3-(2-methyl-2-phenylhydrazinecarbonyl)-5-(N-methylmethylsulfonamido)benzamide]
10 | < 1000 | > 501 | > 501 | > 501 | COC(=O)c1cccc(CNCC(O)C(Cc2ccccc2)NC(=O)c2cc(C(=O)NC(C)c3ccccc3)cc(N(C)S(C)(=O)=O)c2)c1 (stereo not shown) [methyl 3-((2-hydroxy-3-(3-(N-methylmethylsulfonamido)-5-(1-phenylethylcarbamoyl)benzamido)-4-phenylbutylamino)methyl)benzoate]

Source: patent US7504420B2, “Compounds which inhibit beta-secretase activity and methods of use” (CoMentis, Inc., priority 2005, dated 2009)
